Source: US8497385B2, “Bryostatin analogues, synthetic methods and uses” (The Board of Trustees of the Leland Stanford Junior …, priority 2007, dated 2013)

Tests used:
Format in all cases: cell-based, human
COLO 205 = experiment: NCI growth inhibition, COLO 205 (Colon); conditions: COLO 205, Colon
PC-3 = experiment: NCI growth inhibition, PC-3 (Prostate); conditions: PC-3, Prostate
LOX IMVI = experiment: NCI growth inhibition, LOX IMVI (Melanoma); conditions: Melanoma
OVCAR-4 = experiment: NCI growth inhibition, OVCAR-4 (Ovarian); conditions: OVCAR-4, Ovarian
OVCAR-8 = experiment: NCI growth inhibition, OVCAR-8 (Ovarian); conditions: OVCAR-8, Ovarian
SK-MEL-28 = experiment: NCI growth inhibition, SK-MEL-28 (Melanoma); conditions: SK-MEL-28, Melanoma
786-0 = experiment: NCI growth inhibition, 786-0 (Renal); conditions: 786-0, Renal
SF-268 = experiment: NCI growth inhibition, SF-268 (CNS); conditions: SF-268, CNS
HOP-92 = experiment: NCI growth inhibition, HOP-92 (NSC Lung); conditions: HOP-92, NSC Lung
NCI-H23 = experiment: NCI growth inhibition, NCI-H23 (NSC Lung)
K-562 = experiment: NCI growth inhibition, K-562 (Leukemia); conditions: K-562, Leukemia
MDA-MB-231/ATCC = experiment: NCI growth inhibition, MDA-MB-231/ATCC (Breast); conditions: Breast
HT29 = experiment: NCI growth inhibition, HT29 (Colon); conditions: HT29, Colon
SR = experiment: NCI growth inhibition, SR (Leukemia); conditions: Leukemia
NCI-H322M = experiment: NCI growth inhibition, NCI-H322M (NSC Lung); conditions: NSC Lung
ACHN = experiment: NCI growth inhibition, ACHN (Renal); conditions: Renal
HS 578T = experiment: NCI growth inhibition, HS 578T (Breast); conditions: Breast
SK-MEL-2 = experiment: NCI growth inhibition, SK-MEL-2 (Melanoma); conditions: SK-MEL-2, Melanoma
A549/ATCC = experiment: NCI growth inhibition, A549/ATCC (NSC Lung); conditions: NSC Lung
SF-539 = experiment: NCI growth inhibition, SF-539 (CNS); conditions: SF-539, CNS
A498 = experiment: NCI growth inhibition, A498 (Renal); conditions: A498, Renal
HCT-116 = experiment: NCI growth inhibition, HCT-116 (Colon); conditions: HCT-116, Colon
NCI/ADR-RES = experiment: NCI growth inhibition, NCI/ADR-RES (Breast)
KM12 = experiment: NCI growth inhibition, KM12 (Colon); conditions: KM12, Colon
RPMI-8226 = experiment: NCI growth inhibition, RPMI-8226 (Leukemia); conditions: RPMI-8226, Leukemia
U251 = experiment: NCI growth inhibition, U251 (CNS); conditions: U251, CNS
SNB-75 = experiment: NCI growth inhibition, SNB-75 (CNS); conditions: SNB-75, CNS
UACC-62 = experiment: NCI growth inhibition, UACC-62 (Melanoma); conditions: UACC-62, Melanoma
SK-OV-3 = experiment: NCI growth inhibition, SK-OV-3 (Ovarian); conditions: SK-OV-3, Ovarian
HL-60(TB) = tested on: HL-60(TB)
IGROVI = experiment: NCI growth inhibition, IGROVI (Ovarian); conditions: Ovarian
SK-MEL-5 = experiment: NCI growth inhibition, SK-MEL-5 (Melanoma); conditions: SK-MEL-5, Melanoma
MDA-MB-435 = experiment: NCI growth inhibition, MDA-MB-435 (Breast); conditions: MDA-MB-435, Breast
SW-620 = experiment: NCI growth inhibition, SW-620 (Colon); conditions: SW-620, Colon
UO-31 = experiment: NCI growth inhibition, UO-31 (Renal); conditions: UO-31, Renal
NCI-H226 = experiment: NCI growth inhibition, NCI-H226 (NSC Lung)
SN12C = experiment: NCI growth inhibition, SN12C (Renal); conditions: Renal
MI4 = experiment: NCI growth inhibition, MI4 (Melanoma); conditions: MI4, Melanoma
NCI-H522 = experiment: NCI growth inhibition, NCI-H522 (NSC Lung)
MCF7 = experiment: NCI growth inhibition, MCF7 (Breast); conditions: MCF7, Breast
SF-295 = experiment: NCI growth inhibition, SF-295 (CNS); conditions: SF-295, CNS
TK-10 = experiment: NCI growth inhibition, TK-10 (Renal); conditions: TK-10, Renal
DU-145 = experiment: NCI growth inhibition, DU-145 (Prostate); conditions: DU-145, Prostate
SNB-19 = experiment: NCI growth inhibition, SNB-19 (CNS); conditions: SNB-19, CNS
HCT-15 = experiment: NCI growth inhibition, HCT-15 (Colon)
OVCAR-5 = experiment: NCI growth inhibition, OVCAR-5 (Ovarian); conditions: OVCAR-5, Ovarian
EKVX = experiment: NCI growth inhibition, EKVX (NSC Lung); conditions: NSC Lung
CAKI-1 = experiment: NCI growth inhibition, CAKI-1 (Renal); conditions: CAKI-1, Renal
OVCAR-3 = experiment: NCI growth inhibition, OVCAR-3 (Ovarian); conditions: OVCAR-3, Ovarian
UACC-257 = experiment: NCI growth inhibition, UACC-257 (Melanoma); conditions: UACC-257, Melanoma
CCRF-CEM = experiment: NCI growth inhibition, CCRF-CEM (Leukemia); conditions: Leukemia
RXF-393 = experiment: NCI growth inhibition, RXF-393 (Renal)
BT-549 = experiment: NCI growth inhibition, BT-549 (Breast); conditions: BT-549, Breast
HOP-62 = experiment: NCI growth inhibition, HOP-62 (NSC Lung)
MALME-3M = experiment: NCI growth inhibition, MALME-3M (Melanoma)
T-47D = experiment: NCI growth inhibition, T-47D (Breast); conditions: Breast
NCI-H460 = experiment: NCI growth inhibition, NCI-H460 (NSC Lung); conditions: NCI-H460, NSC Lung
MDA-N = experiment: NCI growth inhibition, MDA-N (Breast)
MOLT-4 = experiment: NCI growth inhibition, MOLT-4 (Leukemia); conditions: MOLT-4, Leukemia
HCC-2998 = experiment: NCI growth inhibition, HCC-2998 (Colon); conditions: HCC-2998, Colon

In the case of `CCC/C=C/C=C/C(=O)O[C@H]1/C(=C/C(=O)OC)C[C@H]2C[C@H]([C@@H](C)O)OC(=O)C[C@H](O)C[C@@H]3C[C@H](OC(C)=O)C(C)(C)[C@](O)(C[C@@H]4C/C(=C/C(=O)OC)C[C@H](/C=C/C(C)(C)[C@]1(O)O2)O4)O3` [Bryo-1, Bryostatin-1, reference compound], the GI50 (COLO 205) is reported as −5.40 log of molar concentration, the GI50 (PC-3) is reported as −5.30 log of molar concentration and the GI50 (LOX IMVI) is reported as −5.10 log of molar concentration. For the same compound, the GI50 (OVCAR-4) was −5.50 log of molar concentration, the GI50 (OVCAR-8) was −5.10 log of molar concentration and the GI50 (SK-MEL-28) was −5.10 log of molar concentration. For the same compound, the GI50 (786-0) was −5.20 log of molar concentration, the GI50 (SF-268) was −5.10 log of molar concentration and the GI50 (HOP-92) was −5.30 log of molar concentration. For the same compound, the GI50 (NCI-H23) was >−5 log of molar concentration, the GI50 (K-562) was −5.40 log of molar concentration and the GI50 (MDA-MB-231/ATCC) was −5.20 log of molar concentration. For the same compound, the GI50 (HT29) was −5.30 log of molar concentration, the GI50 (SR) was >−5 log of molar concentration and the GI50 (NCI-H322M) was −6.00 log of molar concentration. The GI50 (ACHN) was −5.50 log of molar concentration, the GI50 (HS 578T) was −5.2 log of molar concentration and the GI50 (SK-MEL-2) was −5.20 log of molar concentration. For the same compound, the GI50 (A549/ATCC) was −5.20 log of molar concentration, the GI50 (SF-539) was >−5 log of molar concentration and the GI50 (A498) was >−5 log of molar concentration. For the same compound, the GI50 (HCT-116) was −5.30 log of molar concentration, the GI50 (NCI/ADR-RES) was >−5 log of molar concentration and the GI50 (KM12) was −5.20 log of molar concentration. The GI50 (RPMI-8226) was >−5 log of molar concentration, the GI50 (U251) was −5.10 log of molar concentration and the GI50 (SNB-75) was −5.50 log of molar concentration. The GI50 (UACC-62) was −5.30 log of molar concentration, the GI50 (SK-OV-3) was −5.10 log of molar concentration and the GI50 (HL-60(TB)) was −5.70 log of molar concentration. For the same compound, the GI50 (IGROVI) was −5.30 log of molar concentration, the GI50 (SK-MEL-5) was −5.70 log of molar concentration and the GI50 (MDA-MB-435) was −5.10 log of molar concentration. The GI50 (SW-620) was −5.50 log of molar concentration, the GI50 (UO-31) was −5.60 log of molar concentration and the GI50 (NCI-H226) was >−5 log of molar concentration. The GI50 (SN12C) was −5.10 log of molar concentration, the GI50 (MI4) was >−5 log of molar concentration and the GI50 (NCI-H522) was >−5 log of molar concentration. The GI50 (MCF7) was −5.20 log of molar concentration, the GI50 (SF-295) was −5.20 log of molar concentration and the GI50 (TK-10) was >−5 log of molar concentration. The GI50 (DU-145) was >−5 log of molar concentration, the GI50 (SNB-19) was >−5 log of molar concentration and the GI50 (HCT-15) was >−5 log of molar concentration. The GI50 (OVCAR-5) was >−5 log of molar concentration, the GI50 (EKVX) was −5.30 log of molar concentration and the GI50 (CAKI-1) was −5.40 log of molar concentration. The GI50 (OVCAR-3) was −5.10 log of molar concentration, the GI50 (UACC-257) was −5.10 log of molar concentration and the GI50 (CCRF-CEM) was −5.30 log of molar concentration. The GI50 (RXF-393) was −5.30 log of molar concentration, the GI50 (BT-549) was −5.10 log of molar concentration and the GI50 (HOP-62) was >−5 log of molar concentration. The GI50 (MALME-3M) was −5.20 log of molar concentration, the GI50 (T-47D) was −5.20 log of molar concentration and the GI50 (NCI-H460) was −5.60 log of molar concentration. The GI50 (MDA-N) was −5.10 log of molar concentration, the GI50 (MOLT-4) was −5.50 log of molar concentration and the GI50 (HCC-2998) was −5.30 log of molar concentration.
